What was measured:
[1] = test system: human normal mammary epithelial cells (HMECs); assay: XTT cell viability, normal mammary epithelial cells; assay type: cell-based; conditions: 72 h
Description: (§1) FIG. 21. DRAs have no effect on cell viability in human normal mammary epithelial cells (HMECs), HMECs were treated with DRA11, DRA9 and DRA9S for 72 h. At the end of incubation period, cell viability was measured by XTT assay. Data represent the mean±S.D. Control refers to group treated with DMSO (0.01%).
(§2) FIGS. 60 A, B & C. DRAs has no effect on cell viability of human normal mammary, prostate and lung epithelial cells. Human normal mammary (FIG. 60A), prostate (FIG. 60B) and lung (FIG. 60C) epithelial cells were treated with DRA11 (0-25 μM) for 72 h, and cell viability was measured by XTT assay.
(§3) XTT Assay. Cells (1×10^4 cells per well) were seeded in 96-well plates (flat bottom), and treated with death receptor agonists/activators/small molecules in the presence or absence of TNF-related apoptosis inducing ligand (TRAIL). Plates were incubated for various time points at 37° C. and 5% CO2. […] The spectrophotometric absorbance of the sample was measured using a microtitre plate (ELISA) reader. The wavelength to measure absorbance of the formazan product was 450 nm, and the reference wavelength was 650 nm.
HMECs were treated with DRA11, DRA9 and DRA9S for 72 h. At the end of incubation period, cell viability was measured by XTT assay. […]

[2] = test system: human bronchial epithelial cells (Beas2B); assay: XTT cell viability, bronchial epithelial cells; assay type: cell-based; conditions: 72 h
Description: as §1, with “23.” for “21.”, “bronchial” for “normal mammary”, “(Beas2B). Beas2B cells” for “(HMECs), HMECs”
(§4) XTT Assay. Cells (1×10^4 cells per well) were seeded in 96-well plates (flat bottom), and treated with death receptor agonists/activators/small molecules in the presence or absence of TNF-related apoptosis inducing ligand (TRAIL). Plates were incubated for various time points at 37° C. and 5% CO2. Before the end of the experiment, 50 μl XTT (sodium 3′[1-(phenylaminocarbonyl)-3,4-tetrazolium]-bis(4-methoxy-6-nitro) benzene sulfonic acid hydrate) labeling mixture (final concentration, 125 μM sodium XTT and 25 μM PMS) per well was added and plates were incubated for a further 4 h at 37° C. and 5% CO2. The spectrophotometric absorbance of the sample was measured using a microtitre plate (ELISA) reader. The wavelength to measure absorbance of the formazan product was 450 nm, and the reference wavelength was 650 nm.
Beas2B cells were treated with DRA11, DRA9 and DRA9S for 72 h. At the end of incubation period, cell viability was measured by XTT assay. See, for example, FIG. 23. Data represent the mean ±S.D. Control refers to group treated with DMSO (0.01%).

[3] = test system: human normal prostate epithelial cells (PrECs); assay: XTT cell viability, normal prostate epithelial cells; assay type: cell-based; conditions: 72 h
Description: as §1, with “22.” for “21.”, “prostate” for “mammary”, “(PrECs). PrECs” for “(HMECs), HMECs”
as §2, §3
PrECs were treated with DRA11, DRA9 and DRA9S for 72 h. At the end of incubation period, cell viability was measured by XTT assay. […]

[4] = test system: breast cancer MDA-MB-231 cell line; assay: XTT cell viability with signaling inhibitor pretreatment, MDA-MB-231; assay type: cell-based, human; conditions: then DRA 72 h; for effect of Akt inhibitor on the inhibitory effect on cell viability: Akt inhibitor 0.5 μM 4 h pretreatment; for effect of PI-3 kinase inhibitor LY294002 on the inhibitory effect on cell viability: LY294002 2.5 μM 4 h pretreatment; for effect of NFκB inhibitor MG132 on the inhibitory effect on cell viability: MG132 2.5 μM 4 h pretreatment
Description: FIG. 39. […] MDA-MB-231 cells were pretreated with NFκB inhibitor MG132 (2.5 μM) for 4 h followed by treatment with various concentrations of DRA11, DRA9, and DRA9S for 72 h. At the end of incubation, cell viability was measured by XTT assay. Data represent the mean±S.D.
FIG. 40. […] MDA-MB-231 cells were pretreated with LY294002 (2.5 μM) for 4 h followed by treatment with various concentrations of DRA11, DRA9, and DRA9S for 72 h. At the end of incubation, cell viability was measured by XTT assay. Data represent the mean±S.D.
FIG. 41. […] MDA-MB-231 cells were pretreated with Akt inhibitor (0.5 μM) for 4 h followed by treatment with various concentrations of DRA11, DRA9, and DRA9S for 72 h. At the end of incubation, cell viability was measured by XTT assay. Data represent the mean±S.D.
as §4

normal human hepatocytes = assay: XTT cell viability, normal hepatocytes; assay type: cell-based; conditions: 0, 1, 3, 5 and 10 μM, 72 h
Description: FIGS. 59 A, B & C. DRAs has no effect on cell viability of normal human hepatocytes. Normal human hepatocytes were incubated with various concentrations of DRA11 (0, 1, 3, 5 and 10 μM) (FIG. 59A), DRA9S (0, 1, 3, 5 and 10 μM) (FIG. 59B), and DRA9 (0, 1, 3, 5 and 10 μM) (FIG. 59C) for 72 h. At the end of incubation period, cell viability was measured by XTT assay.
as §4

[5] = test system: mesothelioma REN cell line; assay: XTT cell viability, mesothelioma REN; assay type: cell-based; conditions: then DRA 72 h; for effect of NFκB inhibitor MG132 on the inhibitory effect on cell viability: MG132 2.5 μM 4 h
Description: FIG. 45. […] Mesothelioma REN cells were treated with NFκB inhibitor MG132 (2.5 μM) for 4 h followed by treatment with various concentrations of DRA11, DRA9, and DRA9S for 72 h. At the end of incubation, cell viability was measured by XTT assay. Data represent the mean±S.D.
FIG. 55. […] REN cells were pretreated with either control peptide (10 μM) or pan caspase inhibitor (z-VAD-fink, 25 μM) for 2 h, followed by treatment with various doses of DRA11, DRA9 and DRA9S for 72 h. At the end of incubation, cell viability was measured by XTT assay. Data represent the mean±S.D.
as §4

[6] = test system: mesothelioma MS1 cell line; assay: XTT cell viability, mesothelioma MS1; assay type: cell-based; conditions: then DRA 72 h; for effect of NFκB inhibitor MG132 on the inhibitory effect on cell viability: MG132 2.5 μM 4 h
Description: FIG. 44. […] Mesothelioma MS1 cells were treated with NFκB inhibitor MG132 (2.5 μM) for 4 h followed by treatment with various concentrations of DRA11, DRA9, and DRA9S for 72 h. At the end of incubation, cell viability was measured by XTT assay. Data represent the mean±S.D.
FIG. 54. […] MS1 cells were pretreated with either control peptide (10 μM) or pan caspase inhibitor (z-VAD-fmk, 25 μM) for 2 h, followed by treatment with various doses of DRA11, DRA9 and DRA9S for 72 h. At the end of incubation, cell viability was measured by XTT assay. Data represent the mean±S.D.
as §4

[7] = z-VAD-fmk 25 μM 2 h pretreatment

Row | Structure (SMILES) | effect on cell viability in HMECs [1] | effect on cell viability in Beas2B cells [2] | effect on cell viability in PrECs [3] | effect of Akt inhibitor on the inhibitory effect on cell viability [4] | effect of PI-3 kinase inhibitor LY294002 on the inhibitory effect on cell viability [4] | effect of NFκB inhibitor MG132 on the inhibitory effect on cell viability [4] | effect on cell viability of normal human hepatocytes (normal human hepatocytes) | effect of NFκB inhibitor MG132 on the inhibitory effect on cell viability [5] | effect of pan caspase inhibitor (z-VAD-fmk) on the inhibitory effect on cell viability [5, 7] | effect of NFκB inhibitor MG132 on the inhibitory effect on cell viability [6] | effect of pan caspase inhibitor (z-VAD-fmk) on the inhibitory effect on cell viability [6, 7]
1 | CCOc1cc(Br)c(Br)c(/C=N/c2cccc(C(=O)O)c2)c1O [DRA9] | no effect | no effect | no effect | enhances the inhibitory effects | enhances the inhibitory effects | enhances the inhibitory effects | no effect | enhances the inhibitory effects | blocks the inhibitory effects | enhances the inhibitory effects | blocks the inhibitory effects
2 | CCOc1cc(Br)c(Br)c(/C=N/c2cccc(C(=O)O)c2C)c1O [DRA9S] | no effect | no effect | no effect | enhances the inhibitory effects | enhances the inhibitory effects | enhances the inhibitory effects | no effect | enhances the inhibitory effects |  | enhances the inhibitory effects | 

From patent US7915245B2, “Methods and compositions of trail-death receptor agonists/activators” (The Board of Regents of the University of Texas System, priority 2007, dated 2011)
